For series [1], the system named is Mus musculus. Nature of the series: Antinociceptive activity in Swiss mouse assessed as inhibition of zymosan A-induced writhing response at 0.62 mmol/kg, ip administered 30 mins prior to zymosan A-challenge. The series is classed as functional, organism-based. (In general: An intraperitoneal irritant provokes the stretching counted in writhing tests.)
A short description of series [2]: n-Octanol-water distribution coefficient, log K of the compound by shake flask method. The series is classed as physicochemical. To be noted: read-out: log KOW.
The subject of series [3] is Mus musculus. Nature of the series: Antinociceptive activity in Swiss mouse assessed as inhibition of zymosan A-induced writhing response at 0.31 mmol/kg, ip administered 30 mins prior to zymosan A-challenge. The class given is functional, organism-based.
Series [4] deals with Rattus norvegicus. Nature of the series: Antiinflammatory activity in Wistar rat assessed as inhibition of carrageenan-induced paw edema at 0.31 mmol/kg, ip administered 30 mins prior to carrageenan-challenge measured up to 6 hrs. The class given is functional, organism-based. In general terms: The carrageenan paw model is a standard test of acute inflammation.
The test system of series [5] is Rattus norvegicus. Nature of the series: Antiinflammatory activity in Wistar rat assessed as inhibition of carrageenan-induced paw edema at 0.62 mmol/kg, ip administered 30 mins prior to carrageenan-challenge measured at 2 hrs. The series is classed as functional, organism-based.
Series [6] has as its system Mus musculus. Nature of the series: Antinociceptive activity in Swiss mouse assessed inhibition of formaldehyde-induced paw licking at 0.62 mmol/kg, ip administered 30 mins prior to formaldehyde-challenge measured from 15 to 30 mins. The class given is functional, organism-based.
Series [7] relates to Mus musculus. Nature of the series: Antinociceptive activity in ip dosed Swiss mouse assessed as inhibition of zymosan A-induced writhing response administered 30 mins prior to zymosan A-challenge. The series is classed as functional.
For series [8], the system named is Rattus norvegicus. Nature of the series: Antiinflammatory activity in Wistar rat assessed as inhibition of carrageenan-induced paw edema at 0.62 mmol/kg, ip administered 30 mins prior to carrageenan-challenge measured up to 6 hrs. The series is classed as functional, organism-based.
Series [9] has as its system Rattus norvegicus. Nature of the series: Antiinflammatory activity in Wistar rat assessed as inhibition of carrageenan-induced paw edema at 0.31 mmol/kg, ip administered 30 mins prior to carrageenan-challenge measured at 2 hrs. The class given is functional, organism-based.
Series [10] has as its system Mus musculus. Nature of the series: Neurotoxicity in Swiss mouse assessed as motor coordination by measuring change in time spent on rotating rod at 0.62 mmol/kg, ip administered 30 mins prior to testing. To be noted: in vivo, 0.5 h. The class given is toxicity, organism-based.
The test system of series [11] is Mus musculus. Nature of the series: Antinociceptive activity in Swiss mouse assessed inhibition of formaldehyde-induced paw licking at 0.62 mmol/kg, ip administered 30 mins prior to formaldehyde-challenge measured up to 5 mins. The series is classed as functional, organism-based.
The subject of series [12] is Mus musculus. Nature of the series: Antinociceptive activity in Swiss mouse assessed inhibition of formaldehyde-induced paw licking at 0.31 mmol/kg, ip administered 30 mins prior to formaldehyde-challenge measured from 15 to 30 mins. The series is classed as functional, organism-based.
The test system of series [13] is Mus musculus. Nature of the series: Antinociceptive activity in Swiss mouse assessed as inhibition of zymosan A-induced writhing response at 0.16 mmol/kg, ip administered 30 mins prior to zymosan A-challenge. The class given is functional, organism-based.
Series [14] has as its system Mus musculus. Nature of the series: Antinociceptive activity in Swiss mouse assessed inhibition of formaldehyde-induced paw licking at 0.31 mmol/kg, ip administered 30 mins prior to formaldehyde-challenge measured up to 5 mins. The class given is functional, organism-based.

SMILES strings stand for the structures. Activity calls are given as the source filed them. The rule behind the calls is not given here.

Consider `NC(=O)N/N=C/c1ccc(O)cc1`, for which the inhibition result in the series with Mus musculus [1] and with Mus musculus [3] was “inactive” throughout. Moreover, the logP in [2] was 0.31.
Take `NC(=O)N/N=C/c1cccc(O)c1`: the inhibition entry in the series with Mus musculus [1] and in the series with Mus musculus [3] was “inactive” each time. Besides, the logP in series [2] was determined as 0.43.
In the case of `NC(=O)N/N=C/c1ccccc1O`, the inhibition entry in the series with Rattus norvegicus [4], with Rattus norvegicus [8] and with Mus musculus [11] was “inactive” in each case. The inhibition result with Rattus norvegicus [5], with Mus musculus [6], in the series on Mus musculus [1], with Rattus norvegicus [9] and with Mus musculus [3] was “Active” throughout. Besides, in the series on Mus musculus [7], the MED worked out at 0.16 mmol/kg. For the same molecule, in the series on Mus musculus [10], the Activity result was “Non-toxic”. Besides, in series [2], the logP was found to be 0.85.
As for `NC(=O)N/N=C/c1ccccc1`, the inhibition result in the series with Rattus norvegicus [4], in the series on Rattus norvegicus [8] and with Mus musculus [13] was “inactive” throughout. Besides, the inhibition entry with Mus musculus [12] and in the series with Mus musculus [14] was “Active” throughout. Further, in series [2], the logP turned out to be 0.91.
Consider `NNC(N)=O`, for which the inhibition entry in the series with Rattus norvegicus [4], with Mus musculus [12] and in the series with Rattus norvegicus [8] was “Active” in each case. In the series on Mus musculus [14], the inhibition result is “inactive”.
`O=Cc1ccccc1`: the inhibition result in the series on Mus musculus [12] is “inactive”.

The record behind these values is ChEMBL document CHEMBL1955759, “Influence of susceptibility to hydrolysis and hydrophobicity of arylsemicarbazones on their anti-nociceptive and anti-inflammatory activities” (Eur J Med Chem, 2012).
